In PubChem BioAssay (NCI):
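Interpolation was linear, between the two tested concentrations surrounding the appropriate level; five concentrations were tested over 48 hours in 96-well plates. Here, GI50 denotes the concentration required for 50% inhibition of growth. TGI is the concentration that stops growth completely.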

How the values were obtained:
Assay in all cases: inhibition of tumour cell growth, NCI panel, 48 h
CAKI-1 renal = test system: CAKI-1 renal
IGROV1 ovarian = test system: IGROV1 ovarian
M14 melanoma = test system: M14 melanoma
MOLT-4 leukemia = test system: MOLT-4 leukemia
RPMI-8226 leukemia = test system: RPMI-8226 leukemia
RXF 393 renal = test system: RXF 393 renal
SN12C renal = test system: SN12C renal
SNB-75 CNS = test system: SNB-75 CNS
MDA-MB-231 breast = test system: MDA-MB-231 breast
HOP-92 NSCLC = test system: HOP-92 NSCLC

SMILES	TGI (CAKI-1 renal)	TGI (IGROV1 ovarian)	TGI (M14 melanoma)	TGI (MOLT-4 leukemia)	TGI (RPMI-8226 leukemia)	TGI (RXF 393 renal)	TGI (SN12C renal)	TGI (SNB-75 CNS)	GI50 (IGROV1 ovarian)	GI50 (M14 melanoma)	GI50 (MDA-MB-231 breast)	TGI (MDA-MB-231 breast)	GI50 (MOLT-4 leukemia)	GI50 (RPMI-8226 leukemia)	GI50 (RXF 393 renal)	GI50 (SN12C renal)	GI50 (SNB-75 CNS)	TGI (HOP-92 NSCLC)	GI50 (CAKI-1 renal)	GI50 (HOP-92 NSCLC)
C=CCn1c(=S)sc2c(C(=O)OCC)c3c(C)cc(C)cn3c2c1=O	> 100 µM	> 100 µM	> 100 µM	> 100 µM	> 100 µM	> 100 µM	> 100 µM	> 100 µM												
C=C(C)[C@@H]1CCC=C2CC[C@]3(C)[C@H](CC[C@@H]4[C@@]5(C)CCCNC(C)(C)[C@@H]5CC[C@]43C)[C@H]21		3.54 µM	3.34 µM	4.09 µM	5.15 µM	3.13 µM	3.48 µM	3.94 µM	1.91 µM	1.73 µM	1.77 µM	3.31 µM	1.87 µM	2.14 µM	1.63 µM	1.79 µM	1.67 µM			
Cc1ccc(S(=O)(=O)N/N=C(\c2nc3ccc(Cl)cc3[nH]c2=O)C(O)c2ccco2)cc1 (stereo unspecified)	> 100 µM	> 100 µM	> 100 µM	> 100 µM		> 100 µM		> 100 µM										> 100 µM		
O=c1cc(-c2ccccn2)[nH]c2cccc(F)c12		> 100 µM	> 100 µM	> 100 µM	> 100 µM	> 100 µM	> 100 µM	> 100 µM										> 100 µM		
COc1c(C(C)=O)c(OCCCCOc2c(C(C)=O)c(OC)c3ccoc3c2OC)c(OC)c2occc12	> 100 µM	> 100 µM	> 100 µM	3.1 µM	5.57 µM		> 100 µM	> 100 µM	7.58 µM	2.55 µM		> 100 µM	1.23 µM	0.394 µM		> 100 µM	8.72 µM		3.3 µM	
CCOc1ccc2c(-c3ccnc(Nc4cc(OC)cc(C(F)(F)F)c4)n3)cnn2n1	> 25 µM	> 25 µM	> 25 µM	> 25 µM	> 25 µM	> 23.6 µM	> 25 µM	> 25 µM	4.87 µM	> 25 µM	9.6 µM	> 22.5 µM	> 25 µM	> 18.3 µM	10.8 µM	> 25 µM	15.1 µM		> 10.3 µM	
CCCn1c(SCCSc2c3ccccc3c(-c3nc(F)nc(F)n3)n2CCC)c2ccccc2c1-c1nc(F)nc(F)n1	> 100 µM		> 100 µM	> 100 µM	79.7 µM	> 100 µM	> 100 µM	> 100 µM										> 100 µM		
Cc1cn2c(/C=C3/C(=O)Nc4c3ccc3ccccc43)c(C(F)(F)F)nc2s1	> 100 µM		11.7 µM	> 100 µM		8.35 µM	> 100 µM	> 100 µM		0.526 µM			2.7 µM		2.24 µM	4.75 µM	0.582 µM	98.7 µM	1.76 µM	5.1 µM
Cc1c(C(=O)C/C(=N/NC(=O)c2ccccc2)C(=O)Nc2ccc(Cl)cc2)[n+](=O)c2ccccc2n1[O-]	> 100 µM	> 100 µM	> 100 µM	> 100 µM	> 100 µM	> 100 µM	> 100 µM	> 100 µM												
O=C(/C=C(\O)C(=O)O)/C=C(\O)c1ccccc1	> 100 µM	> 100 µM	> 100 µM	> 100 µM	> 100 µM	> 100 µM	> 100 µM	> 54.9 µM	> 1 µM	> 1 µM			> 1 µM	> 100 µM		> 1 µM	> 1 µM	> 1 µM		> 1 µM
COc1ccc2c(c1)/C(=C\c1ccncc1)C(=O)N2	15.9 µM	9.37 µM	26 µM		77.1 µM		23.7 µM		4.15 µM	8.33 µM	17.2 µM	36.7 µM		10.2 µM		10.3 µM		98 µM	3.64 µM	22.4 µM
Cc1cc2c(c(C(N)=O)c1C)-c1cccc(F)c1C2=O		> 100 µM	> 100 µM	> 100 µM	> 100 µM		> 100 µM	66.5 µM										> 100 µM		
N#C/C(=C1\SCC(=O)N1c1ccccc1)c1nc2ccccc2[nH]1	> 100 µM	> 100 µM	> 100 µM	> 100 µM		> 100 µM	> 100 µM	> 100 µM										> 100 µM		
CCOC(=O)NC(=O)c1cn(CCN2CCN(C(=O)CNC(=O)CNC(=O)Cn3cc(C(=O)NC(=O)OCC)c(=O)[nH]c3=O)CC2)c(=O)[nH]c1=O	> 100 µM		> 100 µM	> 100 µM			> 100 µM	> 100 µM										> 100 µM		
COC(=O)CCC(NC(=S)N/N=C(\C)c1ccc[nH]1)C(=O)OC (stereo unspecified)		> 100 µM	> 100 µM	> 100 µM		> 100 µM	> 100 µM	> 100 µM										> 100 µM		
[N-]=[N+]=NC(c1cn(C2CC(O)C(CO)O2)c(=O)[nH]c1=O)C(Cl)Br (stereo unspecified)	> 100 µM			> 100 µM	> 100 µM	> 100 µM	> 100 µM	> 100 µM										> 100 µM		
C=CC(=O)N1C/C(=C\c2ccc(Cl)c(Cl)c2)C(=O)/C(=C/c2ccc(Cl)c(Cl)c2)C1	1.17 µM	0.263 µM	0.702 µM	0.38 µM	0.0983 µM	0.299 µM	0.302 µM	0.676 µM										2.94 µM		
CC(C)C1CO[C@]2(C)CCC(=O)N12 (stereo partly specified)	> 100 µM	> 100 µM	> 100 µM	> 100 µM	> 100 µM	> 100 µM	> 100 µM	> 100 µM										> 100 µM		
O=S(=O)(NC1CCCCC1)c1ccc2c(c1)OCCOCCOCCOCCO2	> 100 µM	> 100 µM	> 100 µM	> 100 µM	> 100 µM		> 100 µM	> 100 µM				> 100 µM								
COc1ccccc1/C=C1\COc2ccc(-c3ccccc3)cc2C1=O	> 100 µM	> 100 µM	32.2 µM	> 100 µM	> 100 µM		> 100 µM	6.97 µM	4.69 µM	4 µM	3.66 µM	17.7 µM	2.16 µM	2.83 µM		3.17 µM	2.46 µM	> 100 µM	4.74 µM	4.18 µM
